Laboratory results published in US20170065593A1, “Combination” (Novartis AG, priority 2009, published 2017).
Read-outs that look alike come from different tables or passages of the source.

Tests used:
A549 = test: Cell growth inhibition assay (Cell Titer Glo, 3 days); assay type: cell-based, Human; conditions: A549 (KRAS_G12S), single agent, mean ± std
Method: (§1) Human tumor cell lines from lung cancer, A427, A549, Calu1, Calu3, Calu6, COR-L23, HOP62, MV522, NCI-H1155, NCI-H1299, NCI-H1355, NCI-H1395, NCI-H157, NCI-H1573, NCI-H1666, NCI-1755, NCI-H1792, NCI-2009, NCI-H2030, NCI-H2122, NCI-H2291, NCI-H23, NCI-H2347, NCI-H358, NCI-H441, NCI-H460, NCI-H650, NCI-H727, SW1573 and SW900 were cultured in RPMI 1640 medium containing 10% fetal bovine serum (FBS). Cell line mutation data was collated for the status for the RAS and RAF genes. The data source is the cancer cell line mutation screening data published as part of the Catalog of Somatic Mutations in Cancer database (COSMIC) (Bamford S. et al. Br. J. Cancer. 2004. 91:355-58) and/or in house DNA sequencing.
(§2) Cells were seeded in a 96-well tissue culture plate (NUNC 136102) of RPMI medium containing 10% FBS at 500-2,000 cells per well. Approximately 24 hours after plating, cells were exposed to ten, two-fold or three-fold serial dilutions of either Compound A or B or the combination of the two agents at a 10:1 molar ratio (Compounds A and B respectively). The final dosing concentration range for Compound A was 2-1000 nM and was 0.2-100 nM for Compound B. Cells were incubated in the presence of compounds for 3 days. ATP levels were determined by adding Cell Titer Glo® (Promega) according to the manufacturer's protocol. Briefly, Cell Titer Glo® was added to each plate, incubated for 20 minutes then luminescent signal was read on the SpectraMax L plate reader with a 0.5 sec integration time. All assays were run at least in duplicate.
(§3) Inhibition of cell growth was estimated after treatment with compound or combination of compounds for three days and comparing the signal to cells treated with vehicle (DMSO). Cell growth was calculated relative to vehicle (DMSO) treated control wells. Concentration of compound that inhibits 50% of control cell growth (IC50) was back-interpolated when y=50% of DMSO treated control wells using nonlinear regression with the equation: […]

A427 = test: as above; assay type: cell-based, Human; conditions: A427 (KRAS_G12D), single agent, mean ± std
Method: as §1, §2, §3

NCI-H1395 = test: as above; assay type: cell-based, Human; conditions: NCI-H1395 (BRAF_G469A), single agent, mean ± std
Method: as §1, §2, §3

NCI-H1155 = test: as above; assay type: cell-based, Human; conditions: NCI-H1155 (KRAS_Q61H), single agent, mean ± std
Method: as §1, §2, §3

NCI-H650 = test: as above; assay type: cell-based, Human; conditions: NCI-H650 (KRAS_Q61L), single agent, mean ± std
Method: as §1, §2, §3

NCI-H1755 = test: as above; assay type: cell-based, Human; conditions: NCI-H1755 (BRAF_G469A), single agent, mean ± std
Method: as §1, §2, §3

NCI-H2347 = test: as above; assay type: cell-based, Human; conditions: NCI-H2347 (RAS_H, N_Q61R), single agent, mean ± std
Method: as §1, §2, §3

NCI-H1792 = test: as above; assay type: cell-based, Human; conditions: NCI-H1792 (KRAS_G12C), single agent, mean ± std
Method: as §1, §2, §3

Calu6 = test: as above; assay type: cell-based, Human; conditions: Calu6 (KRAS_Q61K), single agent, mean ± std
Method: as §1, §2, §3

MV522 = test: as above; assay type: cell-based, Human; conditions: MV522 (BRAF_V600E), single agent, mean ± std
Method: as §1, §2, §3

95 cancer cell lines = tested on: 95 cancer cell lines
Method: (Compound A) or mTOR inhibitor (mTORi, Rapamycin) alone or a combination of both agents at a ratio of 1:2 (MEKi:mTORi) and cell proliferation/death was measured after 3 day drug exposure. Briefly, cells were plated in 384-well plates at 500 cells/well in culture media appropriate for each cell type, supplemented with 10% FBS and 1% penicillin/streptomycin, and incubated overnight at 37° C., 5% CO2. […] (two fold dilutions ranging from 7.3 uM-0.014 nM) or with mTOR inhibitor (two fold dilutions ranging from 14.6 uM-0.112 nM) or in combination with both compounds and incubated for 72 hours. Cell growth was measured using the CellTiterGlo (CTG) reagent (Promega) according to the manufacturer's protocol. Data were analyzed using the XLfit (IDBS Ltd.) curve-fitting tool for Microsoft Excel. Growth IC50 (gIC50) and Ymin values were generated using a four-parameter curve fit algorithm (XLFit algorithm #205).
Results were expressed as a percent of the t=0 and plotted against the compound concentration. The T=0 value is normalized to 100% and represents the number of cells at the time of compound addition. […] Formula below was used to calculate mutually exclusive combination index (CI). Data were reported as log CI, where the logarithm value of CI was calculated.
CI=IC50 of a+b/IC50 of a+IC50 of b+a/IC50 of b
Synergy is defined as CI<1, additivity as CI=1 and antagonism as CI>1. Considering the variability of these proliferation assays we arbitrarily defined log CI>0.1 as antagonism, between −0.1 and 0.1 as no significant effect and <−0.1 as synergy.

[1] = Homo sapiens, 72 h, read-out: IC50 Single Agent Compound B
[2] = read-out: IC50 Single Agent Compound A

CO[C@H]1C[C@@H]2CC[C@@H](C)[C@@](O)(O2)C(=O)C(=O)N2CCCC[C@H]2C(=O)O[C@H]([C@H](C)C[C@@H]2CC[C@@H](OCCO)[C@H](OC)C2)CC(=O)[C@H](C)/C=C(\C)[C@@H](O)[C@@H](OC)C(=O)[C@H](C)C[C@H](C)/C=C/C=C/C=C/1C [Compound B, everolimus]
IC50 (A549; [1]): 3 ± 3 nM | IC50 (A427; Homo sapiens, A-427, 72 h, read-out: IC50 Single Agent Compound B): > 100 nM | IC50 (NCI-H1395; [1]): > 100 nM | IC50 (NCI-H1155; [1]): > 100 nM | IC50 (NCI-H650; [1]): > 100 nM | IC50 (NCI-H1755; [1]): > 100 nM | IC50 (NCI-H2347; [1]): > 100 nM | IC50 (NCI-H1792; [1]): > 100 nM | IC50 (Calu6; Homo sapiens, Calu-6, 72 h, read-out: IC50 Single Agent Compound B): > 100 nM | IC50 (MV522; [1]): > 100 nM

N-{3-[3-cyclopropyl-5-(2-fluoro-4-iodo-phenylamino)6,8-dimethyl;-2,4,7-trioxo-3,4,6,7-tetrahydro-2H-pyrido[4,3-d]pyrimidin-1-yl]phenyl}acetamide [Compound A]
percentage of cell undergoing death (cytotoxic) (95 cancer cell lines): 20% | cell lines undergoing death (95 cancer cell lines; independent of the KRAS status): > 20% | IC50 (A549; [2]): 32 ± 9 nM | IC50 (A427; [2]): 95 ± 68 nM | IC50 (NCI-H1395; [2]): > 1000 nM | IC50 (NCI-H1155; [2]): > 1000 nM | IC50 (NCI-H650; [2]): 4 ± 2 nM | IC50 (NCI-H1755; [2]): 45 ± 6 nM | IC50 (NCI-H2347; [2]): 7 ± 2 nM | IC50 (NCI-H1792; [2]): 59 ± 23 nM | IC50 (Calu6; [2]): 5 nM | IC50 (MV522; [2]): 1 nM
